Experimental data taken from US20180370912A1, “COMPOUNDS AND METHODS FOR TREATING DISEASES MEDIATED BY PROTEIN DISULFIDE ISOMERASE” (Beth Israel Deaconess Medical Center, Inc., priority 2017, published 2018).
Blank lines part the entries; values can stand above or below the molecule they belong to.

Columns and labels:
PDI [1] = target: T1, PDI (Homo sapiens, UniProt P07237); assay: ANS fluorescence; type: binding; conditions: 100 μM inhibitor, 50 μM ANS, FIG. 4c
T1 construct: FLAG; made in house; host or cells: Escherichia coli Origami B (DE3), pET-15b
Description: The binding of 1-Anilinonaphthalene-8-Sulfonic Acid (ANS) to full length PDI and the different domains of PDI was assessed by incubating 5 μM of protein in the presence or absence of 100 μM of the indicated inhibitors in 175 μL of TBS at 37° C. for 1 hour. Subsequently, 50 μM of ANS was added and the mixture was incubated in the dark at 25° C. for 20 minutes. Fluorescence spectrum (Ex: 370 nm, Em: 400-700 nm) was measured in a 384-well plate. The experiment was performed in triplicate.

PDI [2] = target: T1, PDI; assay: Insulin reductase (turbidimetric) assay; type: biochemical; conditions: for selectivity for PDI among thiol isomerases: versus ERp5, ERp57, thioredoxin, concentrations 10-fold higher than IC50
Description: (§1) The thiol isomerase-catalyzed reduction of insulin was assayed by measuring the increase in turbidity as detected at an optical density (OD) of 650 nm using a Spectramax M3 (Molecular Devices, Sunnyvale, Calif.). The validation assay consisted of 175 nM of PDI in a solution containing 100 mM potassium phosphate (pH 7.4) containing 0.2 mM bovine insulin, 2 mM EDTA, and 0.3 mM DTT (all purchased from Sigma Aldrich, St. Louis, Mo.), inhibitors were used at the concentrations indicated. The reaction was performed at 25° C. for one hour and thirty minutes. For assays of thiol isomerase selectivity, 11 nM PDI, ERp57 or Thioredoxin, or 33 nM ERpS were assayed in similar buffer conditions as described above and inhibitors were used at the indicated concentration. The reaction was performed at 37° C. for forty-five minutes. For assays of isolated domains studies, 400 nM protein was used, except for a, a′ and ab, in which 800 nM protein was used. The assay was performed in similar buffer conditions as described above. Bepristat 2a and N-(2,4-Dimethoxyphenyl)-N-(1-oxo-2-propyn-1-yl)-2-(2-thienyl)glycyl-glycine ethyl ester (PACMA-31) were used at a final concentration of 15 μM in these studies.
Reversibility studies were performed by incubating 20 μM PDI with 6 μM of bepristat 2a or 300 μM of PACMA-31. After 30 minute equilibration; the PDI-inhibitor mixture was diluted 100 fold into the above mentioned assay buffer. The reductase activity of these mixtures were compared to PDI in the presence or absence of 6 μM bepristat 2a or 0.06 μM bepristat 2a or 300 μM PACMA-31 or 3 μM PACMA-31.

PDI [3] = target: T1, PDI; assay: Di-eosin-GSSG disulfide reductase assay; type: biochemical
Description: The probe di-eosin glutathione disulfide, di-eosin-GSSG, was prepared as previously described in Raturi, A., Vacratsis, P. O., Seslija, D., Lee, L. & Mutus, B., Biochem J 391, 351-357 (2005). Reductase activity of purified thiol isomerases and PDI domains was monitored in a 96-well fluorescence plate format. PDI, AGHA-PDI, ERpS, ERp57, ERp72 and PDI domains were assayed at 50 nM in the presence or absence of the indicated small molecules, peptides or cathepsin G. The assay included 100 mM potassium phosphate (pH 7.4) containing 2 mM EDTA, 5 μM DTT and 150 nM of the di-eosin GSSG probe. The increase in fluorescence was determined for 20 minutes by excitation at 520 nm and emission at 550 nm in a Synergy Biotek 4. The reduction of 150 nM di-eosin-GSSG by 5 μM DTT in the presence or absence of mentioned small molecules, peptides or proteins served as a negative control.
Michaelis Menten analysis was assayed using PDI at 20 nM and small molecules, peptides or cathepsin G at concentrations causing maximal augmentation under similar buffer conditions as described above. 8-point response curves were generated using a range of different di-eosin-GSSG concentrations (50-5000 nM). Enzyme kinetics analysis was performed using Graphpad Prism 5.0.

Washed human platelets = assay: Platelet aggregation, light transmission aggregometry; type: cell-based; conditions: for inhibition of SFLLRN-induced platelet aggregation: 30 μM, 3 μM SFLLRN, FIG. 2d; for reversibility of inhibition of platelet aggregation after washing: platelets incubated with antagonist, washed, then stimulated with SFLLRN
Description: Platelet aggregation was performed as previously described in Jasuja, R. et al., J Clin Invest 122, 2104-2113 (2012). Briefly, platelet rich plasma (PRP) was obtained from healthy volunteers. Platelets were isolated by centrifugation at 2,000 g and resuspended in Hepes-Tyrode buffer (134 mM […], 2.9 mM KCl, 12 mM sodium bicarbonate, 20 mM HEPES, 1 mM magnesium chloride, 5 mM glucose [pH 7.3]). Washed human platelets (2.5×10^8 platelets/mL) were incubated with the indicated concentrations of bepristats and PACMA-31 at 37° C. for 20 minutes and then exposed to 3 μM PAR-1 activating peptide SFLLRN. Aggregation was measured using a Chrono-Log 680 Aggregation System.

[4] = target: T2, PDI domain fragments (a, a′, ab, abb′, b′xa′) (Homo sapiens, UniProt P07237); assay: Insulin reductase assay of isolated PDI domains; type: biochemical; conditions: FIG. 4a
T2 construct: a (residues 1-117), a′ (residues 342-462), ab (residues 1-218), abb′ (residues 1-331), or b′xa′ (residues 219-462); His; made in house; host or cells: Escherichia coli Origami B (DE3), pET-15b
Description: as §1

[5] = target: T3, PDI domain fragments (a, a′, ab, abb′, b′xa′) (Homo sapiens, UniProt P07237); assay: Insulin reductase assay of isolated PDI domains; type: biochemical; conditions: FIG. 4a; remark: listed apart in the source
T3 construct: a (residues 1-117), a′ (residues 342-462), ab (residues 1-218), abb′ (residues 1-331), or b′xa′ (residues 219-462); His; made in house; host or cells: Escherichia coli Origami B (DE3), pET-15b
T3 sequence (P07237 18-235): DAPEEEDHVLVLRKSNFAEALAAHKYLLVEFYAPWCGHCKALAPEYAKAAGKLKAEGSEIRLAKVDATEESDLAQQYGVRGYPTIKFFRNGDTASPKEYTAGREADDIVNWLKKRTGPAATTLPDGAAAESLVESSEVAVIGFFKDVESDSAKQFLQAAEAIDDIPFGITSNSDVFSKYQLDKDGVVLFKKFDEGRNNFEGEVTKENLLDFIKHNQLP
Description: as §1

[6] = target: T4, PDI domain fragments (a, a′, ab, abb′, b′xa′) (Homo sapiens, UniProt P07237); assay: Insulin reductase assay of isolated PDI domains; type: biochemical; conditions: FIG. 4a; remark: listed apart in the source
T4 construct: a (residues 1-117), a′ (residues 342-462), ab (residues 1-218), abb′ (residues 1-331), or b′xa′ (residues 219-462); His; made in house; host or cells: Escherichia coli Origami B (DE3), pET-15b
T4 sequence (P07237 18-348): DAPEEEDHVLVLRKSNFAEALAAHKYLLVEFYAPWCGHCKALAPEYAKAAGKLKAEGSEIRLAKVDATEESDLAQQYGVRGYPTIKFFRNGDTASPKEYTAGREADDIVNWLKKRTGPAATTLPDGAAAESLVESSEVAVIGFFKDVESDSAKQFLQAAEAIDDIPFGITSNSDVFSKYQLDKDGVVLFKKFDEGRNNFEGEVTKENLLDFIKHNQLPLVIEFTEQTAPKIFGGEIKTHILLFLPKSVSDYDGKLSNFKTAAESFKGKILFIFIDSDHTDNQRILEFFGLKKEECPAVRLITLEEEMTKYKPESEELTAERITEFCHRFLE
Description: as §1

T1 sequence (P07237 18-508): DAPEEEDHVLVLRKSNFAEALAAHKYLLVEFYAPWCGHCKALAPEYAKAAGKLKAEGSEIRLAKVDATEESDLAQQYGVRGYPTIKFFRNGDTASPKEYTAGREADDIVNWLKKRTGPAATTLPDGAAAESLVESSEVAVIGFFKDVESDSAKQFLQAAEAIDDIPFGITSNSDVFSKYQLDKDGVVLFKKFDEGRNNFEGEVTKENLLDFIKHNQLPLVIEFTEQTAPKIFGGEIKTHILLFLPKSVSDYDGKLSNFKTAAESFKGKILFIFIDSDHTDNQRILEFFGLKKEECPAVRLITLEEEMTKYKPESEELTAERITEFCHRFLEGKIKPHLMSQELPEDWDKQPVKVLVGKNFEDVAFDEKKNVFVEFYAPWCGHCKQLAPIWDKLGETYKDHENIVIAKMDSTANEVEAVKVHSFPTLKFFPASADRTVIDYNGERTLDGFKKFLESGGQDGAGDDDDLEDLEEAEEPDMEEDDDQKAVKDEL

- increase in ANS fluorescence upon incubation with PDI (PDI [1]): failed to block ANS fluorescence
SMILES: C#CC(=O)N(c1ccc(OC)cc1OC)C(C(=O)NCC(=O)OCC)c1cccs1 (stereo not shown) [PACMA-31, N-(2,4-Dimethoxyphenyl)-N-(1-oxo-2-propyn-1-yl)-2-(2-thienyl)glycyl-glycine ethyl ester, reference compound]
- selectivity for PDI among thiol isomerases (PDI [2]): not entirely selective for PDI among thiol isomerases
- cleavage of di-eosin-GSSG probe by PDI (reductase activity at catalytic cysteines) (PDI [3]): blocked PDI-mediated cleavage of di-eosin-GSSG
- inhibition of SFLLRN-induced platelet aggregation (Washed human platelets): inhibited platelet aggregation
- reversibility of inhibition of platelet aggregation after washing (Washed human platelets): irreversibly inhibited
- insulin reductase activity of b′xa′ domains [4]: inhibited reductase activity of all PDI fragments
- insulin reductase activity of isolated a domain [4]: inhibited reductase activity of all PDI fragments
- insulin reductase activity of isolated a′ domain [4]: inhibited reductase activity of all PDI fragments
- insulin reductase activity of ab domain [5]: inhibited reductase activity of all PDI fragments
- insulin reductase activity of abb′ domains [6]: inhibited reductase activity of all PDI fragments

SMILES: CCOC(=O)c1c(CNCCN(CC)CC)n(-c2ccccc2)c2cc(Br)c(O)cc12 [bepristat 2a]
- increase in ANS fluorescence upon incubation with PDI (PDI [1]): interfered with the increase in ANS fluorescence
- reversibility of PDI inhibition in the insulin reductase assay (PDI [2]; 100-fold dilution of 6 μM bepristat 2a or 300 μM PACMA-31, FIG. 9): readily reversed by dilution to a subinhibitory concentration
- inhibitory activity in the insulin turbidimetric assay compared with quercetin-3-rutinoside, PACMA-31 and bacitracin (PDI [2]; FIG. 1e): more potent inhibitory activity
- IC50 (PDI [2]; insulin reductase assay, FIG. 1b): ~1200 nM
- selectivity for PDI among thiol isomerases (PDI [2]): selective among vascular thiol isomerases
- cleavage of di-eosin-GSSG probe by PDI (reductase activity at catalytic cysteines) (PDI [3]): enhanced cleavage of the di-eosin-GSSG probe by PDI
- apparent kcat (PDI [3]; Michaelis-Menten analysis, incubation with compound, 1135 min^−1 without bepristats): 33.25 s⁻¹
- fluorescence of di-eosin-GSSG in the absence of PDI (PDI [3]; no PDI): did not affect
- inhibition of SFLLRN-induced platelet aggregation (Washed human platelets): inhibited platelet aggregation
- reversibility of inhibition of platelet aggregation after washing (Washed human platelets): restored following washing
- insulin reductase activity of b′xa′ domains [4]: blocked activity
- insulin reductase activity of isolated a domain [4]: did not have activity
- insulin reductase activity of isolated a′ domain [4]: did not have activity
- insulin reductase activity of ab domain [5]: did not have activity
- insulin reductase activity of abb′ domains [6]: blocked activity
